# In patent publication US8299088B2, “Compositions and methods for treating cancer” (priority 2003, dated 2012):
# Read-outs that look alike come from different tables or passages of the source.
# Experiments:
# H460 cells [1] = assay: Intracellular activation of hypoxia activated prodrugs (drug metabolism in medium of cells, LC-MS/UV 370 nm); details: for Example 12 compound UV peak area (370 nm): drug only (no cells), ~30 μM, 3 hours 37° C
# H460 cells [2] = tested on: H460 cells
# H460 cells [3] = assay: Clonogenic toxicity assay; type: cell-based, human; details: 2 hr compound exposure; for IC90: Homo sapiens, NCI-H460, normoxic (air) and anoxic, no significant difference
# Experimental: The clonogenic assay measures the reproductive ability of a surviving cell by specifically determining if a cell can grow to form a colony of greater than 50 cells. Briefly, cells are treated with a drug for an acute exposure and then the drug is removed. Cells are trypinized to form single cell suspensions and known numbers of cells are plated and incubated until colonies form. Colonies are counted and the cell survival is calculated based on number of colonies formed in the treated groups compared to number of colonies formed in the untreated controls. […] The terms aerobic and normoxic are used interchangeably.
# Exponentially growing human H460 cells (obtained from ATCC) were seeded into 60 mm notched glass plates between 2.5 and 5×10^5 cells per plate and grown in RPMI medium supplemented with 10% fetal bovine serum for 2 days prior to initiating treatment. On the day of the experiment drug stocks of known concentrations were prepared in complete medium and 2 ml added to each plate. Glass plates were sealed into airtight aluminum vessels equipped with a valve to control gas flow. To achieve complete equilibration between the gas phase and the liquid phase a series of gas exchanges were performed on each vessel while shaking. Vessels were evacuated and gassed with either a certified anoxic gas mixture (95% nitrogen and 5% carbon dioxide) or with aerobic gas mixture (95% air and 5% carbon dioxide). Specifically, each vessel was evacuated to minus 26 inches of mercury and held for 15 seconds before gassing at 20 psi and again holding for 15 seconds. After a series of five evacuations and gassings the vessels were held an additional 5 minutes before a final evacuation and refilling of each vessel with the desired gas mixture at 0.5 psi above atmospheric pressure. Cells were incubated for 2 hours at 37° C. […] The exact concentration of each stock was determined by counting with a Coulter Z2 particle counter. […] Colonies of greater than 50 cells were counted and the surviving fraction determined.
smiles,measurement,setting,value
"CC[C@@]1(O)C(=O)OCc2c1cc1n(c2=O)Cc2cc3cc(O)ccc3nc2-1 [10-OH Camptothecin, 10-Hydroxycamptothecin, reference compound]",Example 12 compound UV peak area (370 nm),H460 cells [1]; aerobic,0
same,Example 12 compound UV peak area (370 nm),H460 cells [1]; anoxic,0
CCC1(O)C(=O)OCc2c1cc1n(c2=O)Cc2cc3cc(OCc4cnc([N+](=O)[O-])n4C)ccc3cc2-1 (stereo not drawn) [Example 12],release of 10 hydroxycamptothecin,H460 cells [2],no detectable release
same,10-Hydroxy Campothecin UV peak area (370 nm),"H460 cells [2]; 3 h, 30 uM",~0
same,selectivity of release mechanism (anoxic versus hypoxic),H460 cells [1]; in words,highly selective
same,degree of release (conversion to 10 hydroxy-camptothecin),"H460 cells [1]; trial 4: anoxic, with H460 cells",over half
COc1cccc2c1C(=O)c1c(O)c3c(c(O)c1C2=O)C[C@@](O)(C(C)=O)C[C@@H]3O[C@H]1C[C@H](N)[C@H](O)[C@H](C)O1 [daunorubicin],toxicity difference between normoxic (air) and anoxic conditions,H460 cells [3],no significant toxicity difference
same,IC90,H460 cells [3]; read-out: IC 90 (90% inhibition of colony formation),500 nM
same,IC90,H460 cells [3]; read-out: IC 90 data ranges over multiple experiments,200 to 1000 nM
